Article PMC12116161, “An Elastase Inhibitor ShSPI from Centipede Attenuates Bleomycin-Induced Pulmonary Fibrosis” (Toxins, 2025)
“Also recorded” adds a separate entry of the source. Where a SMILES comes first, the peptide text is derived from it. Bridges are numbered along the chain shown (N, C = ends).

Assay: Pharmacokinetic study of ShSPI (plasma, LC-MS/MS)
Format: in vivo, mice
Parameters: CI/F: unit not given here
Description: Each plasma sample was analyzed by LC-MS/MS, and the raw data were processed by DAS pharmacokinetic v2.1.1 software to obtain pharmacokinetic parameters (Table 3) and blood concentration–time curves (Figure 5).
Grouping and Sampling: SIPF grade Sprague Dawley (SD) healthy rats (male, procured from Hunan Slaughter King Laboratory Animal Co.) were randomly divided into three groups, with three rats in each group. All groups received a single administration of the ShSPI and were fasted for 12 h prior to dosing. The groups included two inhalation groups (1 mg/kg and 2 mg/kg) and an intravenous tail vein injection group (1 mg/kg). Blood samples were collected from the subclavian vein at 5 min, 15 min, 30 min, 1 h, 2 h, 4 h, 8 h, and 24 h post-dosing. A 0.2 mL blood sample was transferred into pre-labeled EDTA-2K anticoagulant tubes and gently inverted to ensure thorough mixing of the anticoagulant with the blood. Samples were immediately placed on ice. Plasma was separated within 1 h by centrifugation at 6800 rpm for 5 min at 4 °C. The supernatant was collected and stored at −20 °C until analysis.
Sample Preparation Before Analysis: Sample preparation was conducted under yellow light in an ice-water bath. For each analysis, 30 μL of standard or experimental sample was mixed with 200 μL of working solution, while blank samples were prepared with an equivalent volume of methanol. The mixture was vortexed thoroughly and centrifuged at 5500 rpm for 10 min. A 150 μL aliquot of the supernatant was mixed with 150 μL of ultrapure water, and the final mixture was subjected to analysis.
Chromatographic and Mass Spectrometry Conditions: Chromatographic separation was performed using an AQ C18 column (2.1 × 50 mm, 5.0 μm). The injection volume was 10 μL. The mobile phase consisted of 0.1% formic acid in water (A) and methanol (B), with the following gradient program: 10% B at 0–0.01 min, 98% B at 0.01–1.8 min, 98% B at 1.8–2.5 min, and 10% B at 2.5–3.0 min. The flow rate was set at 0.6 mL/min. Mass spectrometry analysis was performed using an electrospray ionization (ESI) source in multiple reaction monitoring (MRM) mode.

[1] = male, Sprague Dawley, inhaled or intranasal, 1 mg/kg ShSPI, single inhalation, plasma, LC-MS/MS, DAS software, mean ± s, n = 3, method SD rats
[2] = male, Sprague Dawley, inhaled or intranasal, 2 mg/kg ShSPI, single inhalation, plasma, LC-MS/MS, DAS software, mean ± s, n = 3, method SD rats

With `CC[C@H](C)[C@@H]1NC(=O)[C@H](C)NC(=O)[C@@H]2CCCN2C(=O)[C@@H]2CSSC[C@H](NC(=O)[C@H](CO)NC(=O)[C@H](CC(N)=O)NC(=O)[C@H](CO)NC(=O)[C@H](Cc3ccc(O)cc3)NC(=O)[C@H](CCSC)NC(=O)[C@H](CCCNC(=N)N)NC(=O)CNC(=O)[C@H](Cc3ccccc3)NC(=O)[C@H](CCC(=O)O)NC(=O)[C@H](CC(=O)O)NC(=O)[C@H](Cc3ccccc3)NC(=O)[C@H](C(C)C)NC(=O)[C@@H]3CCCN3C(=O)[C@H](CCC(N)=O)NC(=O)[C@H](Cc3ccc(O)cc3)NC1=O)C(=O)N[C@@H](CCC(=O)O)C(=O)N[C@@H](CCSC)C(=O)N[C@@H](CCC(N)=O)C(=O)N[C@@H](CCCNC(=N)N)C(=O)N[C@@H](C)C(=O)N[C@@H](CCCNC(=N)N)C(=O)N[C@H](C(=O)N[C@@H](CC(C)C)C(=O)N[C@@H](CCCNC(=N)N)C(=O)NCC(=O)O)CSSC[C@H](N)C(=O)N1CCC[C@H]1C(=O)N[C@@H](CCC(N)=O)C(=O)N[C@@H](C(C)C)C(=O)N2` [ShSPI] (H-CPQVCPAIYQPVFDEFGRMYSNSCEMQRARCLRG-OH; disulfide 1-31, 5-24; N-terminus and C-terminus assumed) the CI/F (2 mg/kg ShSPI, single inhalation, plasma, LC-MS/MS, DAS software, mean ± s, n = 3, table says mice, method SD rats) was 29.00 ± 11.90, the “detectability in vivo (plasma) at 8 h post-administration” value (inhalation, doses of 1 mg/kg and 2 mg/kg, 8 h post-administration, LC-MS/MS) was “detected; also recorded: detectable” and the “detectability in vivo (plasma) at 24 h post-administration” value (inhalation, doses of 1 mg/kg and 2 mg/kg, 24 h post-administration, LC-MS/MS) was “no longer detectable”. For the same compound, the AUC(0-t) [1] was 580 ± 294 ng·h/mL, the Cmax [1] was 188 ± 64.4 ng/mL and the MRT [1] was 2.86 ± 0.725 h. The Tmax (male, Sprague Dawley, inhaled or intranasal, 1 mg/kg ShSPI, single inhalation, plasma, LC-MS/MS, DAS software, n = 3, method SD rats) was 1 h, the AUC(0-inf) [2] was 1260 ± 422 ng·h/mL and the AUC(0-t) [2] was 1170 ± 415 ng·h/mL. It also gave a Cmax [2] of 347 ± 151 ng/mL, an MRT [2] of 3.1 ± 0.898 h and a half-life [2] of 2.14 ± 0.663 h. For the same compound, the Tmax (male, Sprague Dawley, inhaled or intranasal, 2 mg/kg ShSPI, single inhalation, plasma, LC-MS/MS, DAS software, n = 3, method SD rats) was 1 h and the “overall metabolism in mice” value (overall assessment in words) was “moderate”.
